According to US6911443B2 (Bayer Aktiengesellschaft, priority 2000, dated 2005):
Like-named read-outs stand apart in the source and are kept apart here.

Target: T1, human Syk (GST-Syk) (Homo sapiens, UniProt P43405)
T1 construct: A cDNA fragment encoding human Syk openreading frame was cloned; made in house; host or cells: Sf21 insect cells (baculovirus, transfer vector pAcG2T)
Assay: Syk tyrosine kinase inhibitory assay
Format: biochemical
Summary of the method: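 GST-tagged human Syk from baculovirus/Sf21, 0.65 nM final, with 3 μM biotinylated 30-residue activation-loop peptide and 30 μM ATP in Tris pH 8.0/MgCl2 buffer, 0.25% DMSO; 1 h at room temperature. Phosphopeptide captured on streptavidin, detected by europium-labelled anti-phosphotyrosine 4G10 time-resolved fluorescence.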

[1] = Table 17, IC50 classes, read-out: Activity grade
[2] = in vitro, compounds as yielded by solid phase synthesis, purity about 40 to 90%, read-out: Activity grade (IC50 class)
[3] = Table 11, read-out: Activity grade
[4] = Table 16, read-out: Activity grade
[5] = Table 13, read-out: Activity grade
[6] = in vitro, compounds as yielded by solid phase synthesis, purity about 40 to 90%

Row | SMILES | IC50 [2] | further results
1 | COc1ccc(-c2cc3nccn3c(Sc3ccc(CCC(=O)N(C)C)cc3)n2)cc1OC [compound 17] |  | IC50 [1]: < 500 nM
2 | COC(=O)CCCc1ccc(N(C)c2nc(-c3ccc(OC)c(OC)c3)cc3nccn23)cc1 [Example 11-125] | 500 to 2000 nM | 
3 | COc1ccc(-c2cc3nccn3c(Sc3ncccn3)n2)cc1OC [Example 13-13] | < 500 nM | 
4 | COc1ccc(-c2cc3nccn3c(NCCN(C)C)n2)cc1OC [Example 9-3] | 2000 to 10000 nM | 
5 | COCCCN(C)c1ccc(-c2cc3nccn3c(Nc3ccc(OC)cc3)n2)cc1OC [Example 12-56] |  | IC50 [3]: < 500 nM
6 | COc1ccc(-c2cc3nccn3c(Nc3ccc(CCCC(=O)O)cc3C(N)=O)n2)cc1OC [Example 11-105] | < 500 nM | 
7 | COC(=O)CCCc1ccc(Nc2nc(-c3ccc(OC)c(OC)c3)cc3nccn23)cc1 [Example 9-25] | 500 to 2000 nM | 
8 | COc1cc(-c2cc3nccn3c(Nc3ccc(Cl)cn3)n2)ccc1N1CCOCC1 [Example 12-48] |  | IC50 [3]: < 500 nM
9 | COc1ccc(-c2cc3nccn3c(N(C)c3ccc(OC(F)(F)F)cc3)n2)cc1OC [Example 11-46] | 500 to 2000 nM | 
10 | CCSc1nc(-c2ccc(OC)c(OS(C)(=O)=O)c2)cc2nccn12 [Example 4-9] | 500 to 2000 nM | 
11 | COc1ccc(-c2cc3nccn3c(Nc3cccc(C(N)=O)c3)n2)cc1OC [Example 11-11] | < 500 nM | 
12 | CCSc1nc(-c2ccc(OCCCN3CCOCC3)c(OC)c2)cc2nccn12 [Example 5-1] | < 500 nM | 
13 | COc1cc(-c2cc3nccn3c(Nc3ccccc3)n2)ccc1OCCCN1CCOCC1 [Example 12-16] |  | IC50 [3]: < 500 nM
14 | COc1ccc(-c2cc3nccn3c(N3CCCC(CO)C3)n2)cc1OC (centres unmarked) [Example 9-65] | 500 to 2000 nM | 
15 | CCSc1nc(-c2ccc(OCCCN(C)CC)c(OC)c2)cc2nccn12 [Example 5-2] | < 500 nM | 
16 | COC(=O)[C@H](Cc1ccc(O)cc1)Nc1nc(-c2ccc(OC)c(OC)c2)cc2nccn12 [Example 9-2] | 2000 to 10000 nM | 
17 | COc1ccc(-c2cc3nccn3c(Nc3ccc(CC(N)C(=O)O)cc3)n2)cc1OC (centres unmarked) [Example 30] |  | IC50 [1]: < 500 nM
18 | COc1ccc(-c2cc3nccn3c(Nc3cc(F)cc(F)c3)n2)cc1OC [Example 11-39] | < 500 nM | 
19 | COc1ccc(Nc2nc(-c3ccc(OC)c(OC)c3)cc3ncnn23)cc1 [Example 12-15] |  | IC50 [3]: < 500 nM
20 | CCSc1nc(-c2ccc(NCCN(C)C)c(OC)c2)cc2nccn12 [Example 17-7] |  | IC50 [4]: 500 to 2000 nM
21 | COc1ccc(-c2cc3nccn3c(N3CCC(=O)CC3)n2)cc1OC [Example 9-58] | 500 to 2000 nM | 
22 | CCSc1nc(-c2ccc(OC)cc2)cc2nccn12 [Example 1-5] | 500 to 2000 nM | 
23 | COc1ccc(Nc2nc(-c3ccc(OC)c(OC)c3)cc3nccn23)c(C(N)=O)c1 [Example 11-96] | < 500 nM | 

Row | SMILES | IC50 [2] | further results
24 | COc1ccc(-c2cc3nccn3c(SCCc3cnccn3)n2)cc1OC [Example 14-32] |  | IC50 [5]: < 500 nM
25 | COc1ccc(-c2cc3nccn3c(Nc3ccccc3C(=O)N(C)C)n2)cc1OC [Example 11-1] | 500 to 2000 nM | 
26 | c1ccc(Sc2nc(-c3ccccc3)cc3ncnn23)cc1 [Example 14-7] |  | IC50 [5]: 2000 to 10000 nM
27 | COc1ccc(-c2cc3nccn3c(Nc3ccc(C(=O)NCC(=O)O)cc3)n2)cc1OC [Example 11-23] | < 500 nM | 
28 | CCN(Cc1ccncc1)c1nc(-c2ccc(OC)c(OC)c2)cc2nccn12 [Example 9-52] | 500 to 2000 nM | 
29 | COc1ccc(-c2cc3nccn3c(Nc3ccc(Br)cc3F)n2)cc1OC [Example 11-87] | < 500 nM | 
30 | CCSc1nc(-c2ccc(OC)c(OCc3ccccc3)c2)cc2nccn12 [Example 4-1] | 500 to 2000 nM | 
31 | COc1ccc(-c2cc3nccn3c(Nc3ccc(C(=O)O)cc3)n2)cc1OC [Example 11-28] | < 500 nM | 
32 | COc1ccc(-c2cc3nccn3c(Nc3cccc(N(C)C)c3)n2)cc1OC [Example 11-81] | < 500 nM | 
33 | COc1ccc(-c2cc3nccn3c(N(CCO)Cc3ccccc3)n2)cc1OC [Example 9-29] | < 500 nM | 
34 | COc1ccc(-c2cc3nccn3c(Nc3ccc4[nH]ncc4c3)n2)cc1OC [Example 12-2] |  | IC50 [3]: < 500 nM
35 | COc1ccc(Nc2nc(-c3ccc(N4CCCC4)c(OC)c3)cc3nccn23)cc1 [Example 17-16] |  | IC50 [4]: < 500 nM
36 | COc1ccc(-c2cc3nccn3c(Nc3cnccc3C(N)=O)n2)cc1OC [Example 12-61] |  | IC50 [3]: 500 to 2000 nM
37 | COc1ccc(-c2cc3nccn3c(N3CCN(C4CCCCC4)CC3)n2)cc1OC [Example 9-48] |  | Activity grade (IC50 class) [6]: C-D
38 | CCSc1nc(-c2ccc(N(C)CCOC)c(OC)c2)cc2nccn12 [Example 12-50] |  | IC50 [3]: < 500 nM
39 | COc1ccc(-c2cc3nccn3c(SCc3cccc(C(F)(F)F)c3)n2)cc1OC [Example 14-13] |  | IC50 [5]: 2000 to 10000 nM
40 | COc1ccc(-c2cc3nccn3c(Nc3ccc(S(=O)(=O)N4CCCC4)cc3)n2)cc1OC [Example 11-115] | < 500 nM | 
41 | CCSc1nc(-c2ccc(S(=O)(=O)N3CCC(C(=O)O)CC3)c(OC)c2)cc2nccn12 [Example 2-10] |  | Activity grade (IC50 class) [6]: C-D
42 | COc1cccc(N2CCN(c3nc(-c4ccc(OC)c(OC)c4)cc4nccn34)CC2)c1 [Example 9-43] | 2000 to 10000 nM | 
43 | COc1ccc(-c2cc3nccn3c(SC3C=CCCC3)n2)cc1OC (centres unmarked) [Example 9-6] | < 500 nM | 
44 | COc1ccc(-c2cc3nccn3c(Nc3cccc(C)c3)n2)cc1OC [Example 11-7] | < 500 nM | 
45 | CCSc1nc(-c2ccc(OC)c(OC)c2)cc2nc(C(=O)OC)cn12 [Example 1-1] | 500 to 2000 nM | 
46 | COc1ccc(Nc2nc(-c3ccc(OC)c(OC)c3)cc3nccn23)cc1F [Example 11-100] | < 500 nM | 

Row | SMILES | IC50 [2] | further results
47 | COc1ccc(-c2cc3nccn3c(N3CCC(c4ccc(O)cc4)CC3)n2)cc1OC [Example 9-60] | 500 to 2000 nM | 
48 | COc1ccc(Nc2nc(-c3ccc(OC)c(OC)c3)cc3nccn23)cc1O [Example 11-92] | < 500 nM | 
49 | COC(=O)CCc1ccc(Nc2nc(-c3ccc(OC)c(OC)c3)cc3nccn23)cc1 [Example 9-24] | < 500 nM | 
50 | COC(=O)[C@H](Cc1c[nH]c2ccccc12)Nc1nc(-c2ccc(OC)c(OC)c2)cc2nccn12 [Example 9-85] | 2000 to 10000 nM | 
51 | CCSc1nc(-c2ccc(S(N)(=O)=O)c(OC)c2)cc2nccn12 [Example 2-7] |  | Activity grade (IC50 class) [6]: C-D
52 | COc1cc(-c2cc3nccn3c(Nc3ccccc3)n2)ccc1OCCN1CCOCC1 [Example 12-26] |  | IC50 [3]: < 500 nM
53 | CCNc1nc(-c2ccc(OC)c(OC)c2)cc2nccn12 [Example 9-11] | < 500 nM | 
54 | CCSc1nc(-c2ccc(OC)c(OCCCN3CCN(C)CC3)c2)cc2nccn12 [Example 5-4] | 500 to 2000 nM | 
55 | COc1ccc(-c2cc3nccn3c(Sc3ccc4c(c3)CCC(C(=O)O)C4)n2)cc1OC (centres unmarked) [Example 19] |  | IC50 [1]: < 500 nM
56 | COc1ccc(-c2cc3nccn3c(Nc3ccc(C(F)(F)F)cc3)n2)cc1OC [Example 11-71] | < 500 nM | 
57 | COc1ccc(-c2cc3nccn3c(Sc3ccc(CC(=O)O)cc3)n2)cc1OC [Example 13-19] |  | Activity grade (IC50 class) [6]: C-D
58 | COCCN(C)c1ccc(-c2cc3nccn3c(Nc3ccccc3S(C)(=O)=O)n2)cc1OC [Example 12-44] |  | IC50 [3]: < 500 nM
59 | COc1ccc(-c2cc3nccn3c(Nc3cc(F)c(F)cc3F)n2)cc1OC [Example 11-40] | < 500 nM | 
60 | COc1ccc(-c2cc3nccn3c(Sc3cccc(N)c3)n2)cc1OC [Example 13-3] | < 500 nM | 
61 | CCOC(=O)CN1CCN(c2nc(-c3ccc(OC)c(OC)c3)cc3nccn23)CC1 [Example 9-73] |  | Activity grade (IC50 class) [6]: C-D
62 | COc1ccc(-c2cc3nccn3c(N(C)CCN(C)C)n2)cc1OC [Example 9-76] | 2000 to 10000 nM | 
63 | COC(=O)c1ccc(Nc2nc(-c3ccc(OC)c(OC)c3)cc3nccn23)s1 [Example 12-5] |  | IC50 [3]: 500 to 2000 nM
64 | COc1cc(-c2cc3nccn3c(Nc3ccccc3)n2)ccc1N1CCOCC1 [Example 12-54] |  | IC50 [3]: < 500 nM
65 | COc1ccc(-c2cc3nccn3c(N3CCN(c4ccccc4)CC3)n2)cc1OC [Example 9-33] | 2000 to 10000 nM | 
66 | CCSc1nc(-c2ccc3c(c2)OCO3)cc2nccn12 [Example 1-3] | 500 to 2000 nM | 
67 | COc1ccc(-c2cc3nccn3c(Sc3c(C)cccc3C)n2)cc1OC [Example 13-9] | 2000 to 10000 nM | 
68 | COc1ccc(-c2cc3nccn3c(NCCN)n2)cc1OC [Example 9-81] | 500 to 2000 nM | 
